These results are taken from patent US20090104122A1, “DETECTION OF MEMBRANE ANDROGEN RECEPTOR (mAR) AGENTS” (priority 2006, published 2009).

Numbered stars: 1 amine (or outer) side, 2 acyl side, 3 side chain; on linkers, the order of the positions; unused ones are H or OH. Bridge positions count the residues as written; N and C are the ends. Square brackets hold non-standard residues; d marks the D form. Peptide text beside a SMILES is read from it. ξ: configuration not given here. ξTrp(2-yl) = O=C(C(Cc1c([*:3])[nH]c2ccccc12)N[*:1])[*:2]; X1 = CC(O)(CO)CC(N[*:1])C(=O)[*:2]; ξAsp(3ξ-OH) = NC(C(=O)O)C(O)C(=O)O; Hyp = O=C(O)[CH]1C[CH](O)CN1

Experiment [1] concerns DU145 cells. Briefly: Immunoblot analysis of Triton-soluble and insoluble actin (actin polymerization). The experiment is classed as cell-based, human. To be noted: DU145 cells activated with testosterone-BSA. From the text:
There has been recognition that activation of mAR sites in LNCaP human prostate cancer cells results within minutes, in a significant rearrangement of the actin cytoskeleton, as indicated by the potent actin polymerization and microfilament reorganization (Kampa et al 2002). Using both, non-permeable testosterone analogs and specific inhibitors or antagonists of the intracellular androgen receptors (iAR), we provided strong evidence that in LNCaP cells this phenomenon was induced through the activation of the mARs. […] These quantitative results were fully supported by confocal laser scanning microscopic analysis of the actin cytoskeleton in testo-BSA treated DU145 cells. Indeed, a complete submembranous redistribution of the microfilamentous structures became evident within 10 minutes and persisted for at least 2 hours, as shown in FIGS. 3A-C.
The Triton-soluble proteins were precipitated with equal amounts of 6% perchloric acid (PCA). The Triton-insoluble fractions were precipitated with 1 ml of 3% PCA. Equal volumes of each fraction were subjected to SDS electrophoresis and proteins were transferred to a nitrocellulose membrane, using the LKB electrophoresis apparatus (LKB, Bromma, Sweden). […] Blots were developed using the enhanced chemiluminescence system, and the band intensities were quantitated by PC-based image analysis (Image Analysis, Inc., Ontario, Canada).
(In general: Immunoblotting shows a protein as a band on a membrane.)

For experiment [2], the system named is DU145 cells. Briefly: Quantitative measurement of apoptosis (APOPercentage Apoptosis Assay). The experiment is classed as cell-based, human. Particulars: for effect on testo-BSA induced apoptotic response: DU145 cells, signaling inhibitors; for effect on apoptotic response of DU145 cells treated with Testo-BSA: 10^-6 M, agents blocking actin reorganization. From the text: In order to analyze a possible cross-talk between actin cytoskeleton reorganization and apoptosis upon mABS activation, we studied the apoptotic response of DU145 cells in the presence of specific agents blocking actin reorganization. […] The FACS analysis fully supported these observations. […] This assumption is in line with previously published data, showing that actin reorganization is an important signaling step, regulating NFkB translocation and transcriptional regulation of TNFα induced anti-apoptotic response (Papakonstanti and Stounaras, Mol Biol Cell, 2004).
The APOPercentage Apoptosis Assay (Biocolor Ltd., Belfast, N. Ireland) was used to quantify apoptosis, according to manufacturer's instructions. This kit uses a dye that stains red the apoptotic cells undergoing the membrane “flip-flop” event when phosphatidylserine is translocated to the outer leaflet. Detection of apoptosis can be readily observed under inverted microscopy. For apoptosis quantitation, the amount of dye within the labeled cells can subsequently be released into solution and the concentration measured at a wavelength of 550 nm (reference filter 620 nm) using a color filter microplate […] (Dynatech MicroElisa reader Chantilly, Va.).

In experiment [3] the test system is RhoA. As to the kind of experiment: RhoA activation after mAR activation. In kind it is cell-based, human. Particulars: 10^-7 M, DU145 cells. From the text:
Looking for an alternative mechanism mediating the non-genomic testosterone signaling in DU145 cells we analyzed a possible rapid activation of Rho-GTPase's. Indeed, among the signaling effectors that regulate such processes of actin reorganization, the best understood are small GTPases of the Rho family. Classically, plasma membrane receptors activate specific guanine exchange factors (GEFs) often via phosphorylation, which leads to subsequent loading of Rho GTPases with GTP. Active Rho GTPases continue signal transmission towards Rho coiled-coiled kinase 1 (ROCK1) and/or p21-activated kinase 1 (Pak1). Activated […] phosphorylate and activate Lim-kinases 1 and 2 (Limk1 and Limk2) respectively. Limk1 and Limk2 are closely related proteins composed of two N-terminal Lim domains and a C-terminal kinase domain. The Lim domains are protein-binding motifs frequently found in cytosolic proteins that interact with the actin cytoskeleton. Eventually, Limk1 and Limk2 phosphorylate actin-depolymerizing proteins such as cofilin and actin-depolymerizing factor (ADF), which are inactivated and thus permit actin polymerization to occur. […] To further analyze the downstream effector of RhaA activation, DU145 cells, activated with testo-BSA were treated with the specific ROCK inhibitor Y27632 and actin redistribution was documented quantitatively using the G/Total-actin ratio.

In experiment [4] the test system is prostate-specific antigen (PSA). Particulars: within minutes; cited from earlier work.
In experiment [5] the test system is LNCaP-inoculated nude mice. As to the kind of experiment: In vivo tumor growth in LNCaP-inoculated nude mice. To be noted: 8 mg/kg weight for one month, compared to control animals.
For experiment [6], the system named is FAK/PI-3K/Rac1 pathway. Briefly: FAK/PI-3K/Rac1 signaling after mAR activation. The experiment is classed as cell-based, human. To be noted: DU145 cells, FAK constitutively phosphorylated. From the text:
Indeed, as shown in FIGS. 5A-B, FAK was constitutively phosphorylated in DU145 cells. […] These findings imply the existence of an alternative non-genomic signaling cascade regulating the rapid actin reorganization shown in FIGS. 2A-B.

Experiment [7] relates to DU-145 cells. As to the kind of experiment: Cell migration, adhesion and invasion after mAR activation. In kind it is cell-based, human. From the text: (§1) This contact induced significant actin remodelling followed by a decrease in cell migration, adhesion and invasion. […] Activation of the pathway induced signaling and actin reorganization. The pathway is not activated in LNCAP cells. […] This effect was not observed with the anti-androgen flutamide.

For experiment [8], the system named is LNCAP cells. As to the kind of experiment: Induction of apoptosis in LNCaP cells. In kind it is cell-based, human.
From the text: as §1

Regarding `C[C@@H](N)[C@H]1CC[C@H](C(=O)Nc2ccncc2)CC1` [Y27632], the “effect on testosterone-induced rapid actin polymerization” value in experiment [1] is “totally inhibited”. For the same compound, the “effect on testo-BSA induced apoptotic response” value in experiment [2] is recorded as “abrogating”.

Consider `C=C1[C@@H](C)[C@H]2[C@H](Cc3ccccc3)NC(=O)[C@]23OC(=O)/C=C/[C@H](O)CCC[C@@H](C)C/C=C/[C@H]3[C@@H]1O` [cytochalasin B], for which the “effect on apoptotic response of DU145 cells treated with Testo-BSA” value in experiment [2] is “clear inhibition”.

Consider `CC1NC(=O)C2CC(O)CN2C(=O)C2CSc3[nH]c4ccccc4c3CC(NC1=O)C(=O)NC(CC(C)(O)CO)C(=O)NC(C(C)C)C(=O)NC(C(O)C(=O)O)C(=O)N2` (stereo not drawn) [phallacidin] (cyclo([ξAsp(3ξ-OH)]C[Hyp]A[ξTrp(2-yl)][X1]V); thioether 2-5; configuration not given here), for which the “effect on apoptotic response of DU145 cells treated with Testo-BSA” value in experiment [2] is “clear inhibition”.

For the compound `COC[C@H]1OC(=O)c2coc3c2[C@@]1(C)C1=C(C3=O)[C@@H]2CCC(=O)[C@@]2(C)C[C@H]1OC(C)=O` [wortmannin], the “effect on testosterone-induced rapid actin polymerization” value in experiment [1] is reported as “no effect”. Further, the “effect on testo-BSA induced apoptotic response” value in experiment [2] is recorded as “no effect”.

Consider “testosterone 3-(O-carboxymethyl)oxime:BSA [testosterone-BSA]”, for which, in experiment [3], the “persistence of RhoA activation” value is recorded as “up to two hours”, the “time of maximum RhoA activation” value was 30 min and the “time to activation of RhoA” value is at most 3 min. The “secretion of prostate-specific antigen (PSA)” value in experiment [4] is “increase”. The induction of apoptosis entry in experiment [2] is “induced apoptosis”. The reduction of tumor-size in experiment [5] is recorded as 60%. Moreover, the FAK phosphorylation result in experiment [6] is “neither apparent additional FAK phosphorylation could be documented”. In experiment [7], the “cell migration, adhesion and invasion” value was “decrease”. Besides, in experiment [8], the induction of apoptosis entry is “induced apoptosis”.
